Key:
[1] = target: T1, Trichoderma harzianum CBS 223.93 L-amino acid oxidase (Trichoderma harzianum, UniProt A0A2T4A4V3); experiment: Substrate specificity: specific activity and Km with various L-amino acids as substrates; type: biochemical; conditions: for Specific Activity / activity of the L-amino acid oxidase towards the substrate: phosphate buffer pH 8.5, room temperature; for Specific Activity: 20 minutes; for ranking of Km values among substrates: comparison of the substrates of Table 1; for Km: Lineweaver-Burk plots (1/v versus 1/s)
T1 sequence (A0A2T4A4V3 with tags, fused parts or gaps V19I/P71L/S84P/G163K/E317K/D352E/Y353H/V383A/D435A/DEL437-437/D438T/D462E/L570R/R580K/V618I): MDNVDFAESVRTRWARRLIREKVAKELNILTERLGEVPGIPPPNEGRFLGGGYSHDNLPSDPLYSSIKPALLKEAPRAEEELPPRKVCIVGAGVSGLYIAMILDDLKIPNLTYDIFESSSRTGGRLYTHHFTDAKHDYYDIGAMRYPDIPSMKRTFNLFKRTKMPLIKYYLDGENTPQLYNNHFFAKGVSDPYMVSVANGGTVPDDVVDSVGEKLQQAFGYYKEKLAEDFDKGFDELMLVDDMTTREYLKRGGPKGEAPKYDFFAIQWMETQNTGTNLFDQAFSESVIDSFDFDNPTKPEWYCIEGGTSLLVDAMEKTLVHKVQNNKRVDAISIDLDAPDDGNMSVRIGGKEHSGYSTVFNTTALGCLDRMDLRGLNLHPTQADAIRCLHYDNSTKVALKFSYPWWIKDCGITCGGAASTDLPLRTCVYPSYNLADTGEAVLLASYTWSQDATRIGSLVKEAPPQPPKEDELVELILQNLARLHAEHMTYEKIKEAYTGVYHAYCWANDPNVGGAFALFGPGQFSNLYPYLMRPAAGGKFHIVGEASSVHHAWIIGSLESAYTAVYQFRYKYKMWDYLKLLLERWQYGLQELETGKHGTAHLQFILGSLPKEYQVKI
Procedure: (§1) In the following characterization experiments, detection of H2 O2 was carried out using a Coprinus cinereus peroxidase (CiP), obtained according to WO 92/16634, at a level of 4.5 PODU/ml, and 0.4 mM ABTS in phosphate buffer at pH 7.0. The hydrogen peroxide concentrations were determined relative to a freshly prepared hydrogen peroxide standard solution.
For determination of substrate specificity, the activity of the L-amino acid oxidase was determined with various L-amino acids as substrates. The L-amino acid oxidase was incubated with the substrate in phosphate buffer at pH 8.5 and room temperature for 20 minutes. Generated hydrogen peroxide was detected using ABTS and CiP as described above. The specific activity was determined as described in Example 2 above.
Km values for the various substrates were determined by plotting values of 1/v versus 1/s (Lineweaver-Burk plots).

[2] = Specific activity of the purified L-amino acid oxidase; type: biochemical, Trichoderma harzianum; conditions: 50 mM phosphate buffer pH 8.5, 20° C., 1 mM L-arginine as substrate
Procedure: For purposes of the present invention, L-amino acid oxidase activity is determined according to the procedure described in WO 94/25574 where the hydrogen peroxide produced during the […] of L-arginine is measured by coupling the reaction to a peroxidase in the presence of 2,2'-azinobis(3-ethylbenzothiazoline-6sulfonate) (ABTS) which produces a greenish-blue color at 418 nm. One unit of L-amino acid oxidase activity is defined as 1.0 μmole of hydrogen peroxide produced per minute at 20° C. in 50 mM phosphate buffer at pH 8.5 with 1 mM L-arginine as substrate.
The specific activity of the purified L-amino acid oxidase was 16 U/mg determined in a 50 mM phosphate buffer at pH 8.5, 20° C. with 1 mM L-arginine as substrate. One unit of enzyme will form 1 μmole of hydrogen peroxide per minute. The amount of protein was quantified assuming that a solution of the L-amino acid oxidase having an optical density of 1 determined at 280 nm contains 1 mg of protein/ml. The L-amino acid oxidase yield was approximately 50 mg of pure protein per liter of culture medium.

[3] = pH activity profile / pH optimum of the L-amino acid oxidase; type: biochemical, Trichoderma harzianum; conditions: 20 minutes, 1 mM L-arginine, 100 mM phosphate buffer; FIG. 1
Procedure: as §1
(§2) For determination of the pH optimum, the assay was carried out in two steps. In the first step, the L-amino acid oxidase was incubated for 20 minutes with 1 mM of L-arginine in 100 mM of phosphate buffer at various pH values. In the second step, the generated hydrogen peroxide was detected as described above.

[4] = pH stability of the L-amino acid oxidase (residual activity); type: physicochemical, Trichoderma harzianum; conditions: 1 hour at 40° C., 50 mM phosphate buffer, FIG. 2
Procedure: as §1, §2
For determination of pH stability, the L-amino acid oxidase was incubated at various pH values for 1 hour at 40° C. in 50 mM of phosphate buffer. After dilution, residual activity was measured using the two-step procedure described above.

[5] = Temperature stability of the L-amino acid oxidase (residual activity); type: physicochemical, Trichoderma harzianum; conditions: phosphate buffer pH 8.5, 1 hour, FIG. 3
Procedure: as §1, §2
For determination of temperature stability, the L-amino acid oxidase was incubated in phosphate buffer at pH 8.5 for 1 hour at various temperatures. After dilution, residual activity was measured using the two-step procedure described above.

Which results are given for `CC(C)C[C@H](N)C(=O)O` [L-leucine]?
Specific Activity ([1]; Substrate Conc. 80 mM): 16 U/mg; activity of the L-amino acid oxidase towards the substrate [1]: showed activity

For `N=C(N)NCCC[C@H](N)C(=O)O` [L-arginine], which “Specific Activity” value ([1]; Substrate Conc. 1 mM) is on record?
The value was 16 U/mg.

What about the “Specific Activity” value ([1]; Substrate Conc. 10 mM) of the same molecule?
The value was 30 U/mg.

What about the “ranking of Km values among substrates” value [1] of the same molecule?
The value was “lowest Km values”.

What about the preferred substrate ([1]; from the experiments of Table 1) of the same molecule?
The preferred substrate was “preferred substrate”.

And the “activity of the L-amino acid oxidase towards the substrate” value [1]?
Its value is “showed activity”.

With `CSCC[C@H](N)C(=O)O` [L-methionine] as the molecule, how does the Km [1] read?
Its Km is 15 mM.

What about the “Specific Activity” value ([1]; Substrate Conc. 80 mM) of the same molecule?
The value was 8 U/mg.

What about the “activity of the L-amino acid oxidase towards the substrate” value [1] of the same molecule?
Its value is “showed activity”.

Which results are given for `NC(=O)C[C@H](N)C(=O)O` [L-asparagine]?
Specific Activity ([1]; Substrate Conc. 80 mM): 7 U/mg; activity of the L-amino acid oxidase towards the substrate [1]: showed activity

For `N[C@@H](Cc1ccccc1)C(=O)O` [L-phenylalamine], which “Specific Activity” value ([1]; Substrate Conc. 80 mM) is on record?
Its value is 25 U/mg.

And the “activity of the L-amino acid oxidase towards the substrate” value [1]?
Its value is “showed activity”.

For `NCCCC[C@H](N)C(=O)O` [L-lysine], which Km [1] is on record?
The Km was 0.2 mM.

What about the “Specific Activity” value ([1]; Substrate Conc. 1 mM) of the same molecule?
The value was 7 U/mg.

What about the “ranking of Km values among substrates” value [1] of the same molecule?
The value was “lowest Km values”.

What about the “activity of the L-amino acid oxidase towards the substrate” value [1] of the same molecule?
Its value is “showed activity”.

B1: L-amino acid oxidase: purified L-amino acid oxidase from Trichoderma harzianum CBS 223.93; deduced protein of 617 amino acids (SEQ ID NO. 2) (protein)
chain: T1 sequence (A0A2T4A4V3 with tags, fused parts or gaps V19I/P71L/S84P/G163K/E317K/D352E/Y353H/V383A/D435A/DEL437-437/D438T/D462E/L570R/R580K/V618I)
For B1, which “specific activity of the purified L-amino acid oxidase” value [2] is on record?
Its value is 16 U/mg.

What about the “pH interval in which activity is shown” value [3] of the same molecule?
Its value is “from pH below 7 to a pH of approximately 12”.

And the pH optimum [3]?
The pH optimum was ~9 pH.

What about the “pH stability relative to initial activity” value ([4]; pH 10) of the same molecule?
Its value is “more than 70%”.

What about the “pH stability relative to initial activity” value ([4]; range pH 7-9.5) of the same molecule?
The value was “more than 80%”.

And the “temperature range in which the enzyme is stable” value [5]?
Its value is “from below 22 °C to above 60 °C”.

And the “temperature stability relative to initial activity” value ([5]; range 25° C. to 60° C.)?
The value was “more than 80%”.
